Assay results as given in US20240101535A1, “DIHYDROISOQUINOLINONE DERIVATIVE AND APPLICATION THEREOF” (ETERN BIOPHARMA (SHANGHAI) CO., LTD., priority 2020, published 2024).
Counter-ions that a name gives are not always drawn. Like-named read-outs stand apart in the source and are kept apart here.

Experiments:
Jurkat cells = experiment: Jurkat cell proliferation inhibition experiment (CellTiter-Glo); type: cell-based; settings: for IC50: Homo sapiens, 144 h, Jurkat cells, 6 days, CellTiter-Glo, read-out: Jurkat cell proliferation inhibitory activity IC50; for selectivity: ratio of Jurkat cell IC50 to MV4-11 cell IC50
Description: Test Example 3: Jurkat (ATCC: TIB-152) Cell Proliferation Inhibition Experiment
ATP in living cells was quantitatively detected by CellTiter-Glo (Promega-G7573) Luminescence Cell Viability Assay Kit to determine the effect of the compounds to be tested on cell proliferation. • Step 1: Jurkat cells were seeded in 96-well plates (Greiner-655098) at a density of 1,500 cells per well with a volume of 140 μL per well; Cell culture medium components included RPM11640 (Gibco-A10491-01)+10% FBS (Gibco-10099-141C)+1% Penicillin-Streptomycin (5,000 U/mL, Gibco-15070-063). • Step 2: On the day of cell seeding, the cells were treated with the compound to be tested. The compound to be tested was diluted with a 3-fold gradient, and a total of 9 concentration gradients were set. DMSO (Sigma, D2650) with 0.5% final concentration or a DMSO solution containing the compound to be tested was added per well with 2 or 3 replicate wells at each concentration point. The plates were incubated at 37° C. in a 5% CO2 incubator (Thermo Scientific Steri-Cycle 371) for 6 days. • Step 3: The cell viability in the control and treatment groups was detected with CellTiter-Glo Luminescent Cell Viability Assay Kit. 50 μL of CellTiter-Glo was added per well, mixed well, and incubated for 15 min at room temperature protected from light. According to the kit instructions, the chemiluminescence signal was read using a multifunctional microplate reader (EnVision, PerkinElmer).
The inhibition percentage (%) of the compound at each concentration point was calculated by the following formula:
Inhibition Percentage (%)=(1−signal value of the group treated with the compound/signal value of the group treated with DMSO)*100.
The value of cell proliferation semi-inhibitory concentration IC50 was calculated using GraphPad Prism software, and the results are shown in Table 3. The ratio of Jurkat cell proliferation inhibitory activity IC50 to MV4-11 cell proliferation inhibitory activity IC50 may be further calculated to obtain selectivity.

MV4-11 cells = experiment: MV4-11 cell proliferation inhibition experiment (CellTiter-Glo); type: cell-based; settings: Homo sapiens, 144 h, 6 days
[1] = target: WDR5 protein (22-334aa) with MLL1 polypeptide (3672-3773aa) (Homo sapiens, UniProt P61964); experiment: WDR5-MLL PPI inhibitory activity test (HTRF); type: binding; settings: His-tagged WDR5 and biotin-tagged MLL1 polypeptide
Method in brief: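 His-tagged WDR5 (42 nM working solution) was preincubated with compound for 60 min at room temperature in 25 mM HEPES pH 7.5, 100 mM NaCl, 0.05% Tween 20 (final DMSO 0.5%). Biotin-MLL1 peptide (333 nM working solution) was then added for 10 min, followed by Eu-cryptate/streptavidin-APC detection for 60 min. The 665/620 nm ratio gave IC50.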

[2] = read-out: MV4-11 cell proliferation inhibitory activity IC50
[3] = read-out: cell proliferation inhibitory activity

| SMILES | IC50 (Jurkat cells) [nM] | selectivity (Jurkat cells) [time] | IC50 (MV4-11 cells; [2]) [nM] | IC50 (MV4-11 cells; [3]) [nM] | IC50 [1] [nM] |
| --- | --- | --- | --- | --- | --- |
| [2H]C([2H])([2H])N(Cc1cc(Cn2ccnc2NC)cc2c1C1(CCC1)CN(C(C)c1cc(OCC)c(C#N)cn1)C2=O)C([2H])([2H])[2H] (centres unmarked) [Compound 100, 6-(1-(5′-((bis(methyl-d3)amino)methyl)-7′-((2-(methylamino)-1H-imidazol-1′-yl)methyl)-1′-oxo-1′H-spiro [cyclobutan-1,4′-isoquinoline]-2′(3′H)-yl)ethyl)-4-ethoxynicotinonitrile] | 1600 | 320 | 5 | < 50 | < 20 |
| CCOc1cc([C@H](C)N2CC3(CC3)c3c(CN(C)C)cc(Cn4ccnc4NC)cc3C2=O)ncc1F [Compound 1, (S)-5′-((dimethylamino)methyl)-2′-(1-(4-ethoxy-5-fluoropyridine-2-yl)ethyl)-7′-((2-(methylamino)-1H-imidazol-1-yl)methyl)-2′,3′-dihydro-1′H-spiro[cyclopropan-1,4′-isoquinoline]-1′-one] | 6800 | 357 | 19 | 50 to 200 | < 20 |
| CCOc1cc([C@H](C)N2CC3(CC(F)(F)C3)c3c(CN(C)C)cc(Cn4ccnc4NC)cc3C2=O)ncc1C#N [Compound 99] | 1200 | 300 | 4 | < 50 | < 20 |
| CCOc1cc([C@H](C)N2CC3(CCC3)c3c(CN(C)C)cc(Cn4ccnc4NC)cc3C2=O)ncc1C#N [Compound 23, (S)-6-(1-(5′-((dimethylamino)methyl)-7′-((2-(methylamino)-1H-imidazol-1-yl)methyl)-1′-one-1′H-spiro[cyclobutan-1,4′-isoquinoline]-2′(3′H)-yl)ethyl)-4-ethoxynicotinonitrile] | 1400 | 350 | 4 | < 50 | < 20 |
| CCOc1cc([C@H](C)N2C[C@@]3(CC3(F)F)c3c(CN(C)C)cc(Cn4ccnc4NC)cc3C2=O)ncc1C#N (stereo in doubt) [Compound 94, 6-(-1-(5′-((dimethylamino)methyl)-2,2-difluoro-7′-((2-(methylamino)-1H-imidazol-1-yl)methyl)-1′-one-1′H-spiro[cyclopropan-1,4′-isoquinoline]-2′(3′H)-yl)ethyl)-4-ethoxynicotinonitrile formate salt] | 1400 | 466 | 3 | < 50 | < 20 |
| CCOc1cc(C(C)N2CC3(CC3(F)F)c3c(CN(C)C)cc(Cn4ccnc4NC)cc3C2=O)ncc1F (single isomer, unassigned) [Compound 88] |  |  |  | < 50 | < 20 |
| CCOc1cc([C@H](C)N2C[C@]3(CC3(F)F)c3c(CN(C)C)cc(Cn4ccnc4NC)cc3C2=O)ncc1F [Compound 91, (S)-5′-((dimethylamino)methyl)-2′-((S)-1-(4-ethoxy-5-fluoropyridine-2-yl)ethyl)-2,2-difluoro-7′-((2-(methylamino)-1H imidazol-1-yl)methyl)-2′, 3′-dihydro-1′H-spiro[cyclopropan-1,4′-isoquinoline]-1′-one] | 3100 | 310 | 10 | < 50 | < 20 |
| CCOc1cc(CN2CC3(CCC3)c3c(CN4CC(F)(F)C4)cc(Cn4ccnc4NC)cc3C2=O)ncc1C#N [Compound 82, 6-((5′-((3,3-difluoroazetidinyl-1-yl)methyl)-7′-((2-(methylamino)-1H-imidazol-1-yl)methyl)-1′-one-1′H-spiro[cyclobutan-1,4′-isoquinoline]-2′(3′H)-yl)methyl)-4-ethoxynicotinonitrile] |  |  |  | < 50 | < 20 |
| CCOc1cc([C@H](C)N2CC3(CCC3)c3c(CN4CCN(S(C)(=O)=O)CC4)cc(Cn4ccnc4NC)cc3C2=O)ncc1C#N [Compound 80, (S)-4-ethoxy-6-(1-(7′-((2-(methylamino)-1H-imidazol-1-yl)methyl)-5′-((4-(methylsulfonyl)piperazin-1-yl)methyl)-1′-one-1′H-spiro[cyclobutan-1,4′-isoquinoline]-2′(3′H)-yl)ethyl)nicotinonitrile] |  |  |  | < 50 | < 20 |
| CCOc1cc([C@H](C)N2CC3(CCC3)c3c(CN4CCN(S(C)(=O)=O)CC4)cc(Cn4ccnc4NC)cc3C2=O)ncc1F [Compound 78, (S)-2′-(1-(4-ethoxy-5-fluoropyridine-2-yl)ethyl)-7′-((2-(methylamino)-1H-imidazol-1-yl)methyl)-5′-((4-(methylsulfonyl)piperazin-1-yl)methyl)-2′,3′-dihydro-1′H-spiro[cyclobutan-1,4′-isoquinoline]-1′-one] |  |  |  | < 50 | < 20 |
